{"source": "patent US20210228545A1", "about": "“METHODS OF TREATING CONDITIONS RELATED TO THE S1P1 RECEPTOR” (Arena Pharmaceuticals, Inc., priority 2018, published 2021)", "format_in_all_cases": "in vitro ADME", "key": {"[1]": {"molecular_target": "CYP1A2 (Homo sapiens, UniProt P05177)", "sequence (P05177 whole entry)": "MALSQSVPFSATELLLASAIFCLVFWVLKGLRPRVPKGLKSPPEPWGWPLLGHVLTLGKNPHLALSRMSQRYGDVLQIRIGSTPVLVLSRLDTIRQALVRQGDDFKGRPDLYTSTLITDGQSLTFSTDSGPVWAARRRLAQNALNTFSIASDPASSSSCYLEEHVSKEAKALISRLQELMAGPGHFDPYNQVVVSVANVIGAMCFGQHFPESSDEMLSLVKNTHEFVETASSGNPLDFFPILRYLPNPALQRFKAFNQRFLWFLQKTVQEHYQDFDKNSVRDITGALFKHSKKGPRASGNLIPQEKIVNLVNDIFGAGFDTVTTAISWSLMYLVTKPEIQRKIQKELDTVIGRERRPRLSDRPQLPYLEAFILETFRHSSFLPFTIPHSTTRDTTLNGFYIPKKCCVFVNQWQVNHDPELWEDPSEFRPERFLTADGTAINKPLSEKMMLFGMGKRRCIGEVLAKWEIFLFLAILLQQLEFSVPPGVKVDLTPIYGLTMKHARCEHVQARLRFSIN", "experiment": "Direct inhibition of CYP activity in human liver microsomes", "conditions": "up to 10 μM", "text": "(§1) Known metabolism-dependent and/or direct inhibitors of CYP and UGT enzymes were included as positive controls, as applicable."}, "[2]": {"molecular_target": "T1, CYP2B6 (Homo sapiens, UniProt P20813)", "T1 construct": "human liver microsomes from a pool of 200 individuals; from tissue; host or cells: human liver microsomes, pool of 200 individuals", "experiment": "Direct inhibition of CYP activity in human liver microsomes", "conditions": "up to 10 μM", "text": "as §1"}, "[3]": {"molecular_target": "T2, CYP2C19 (Homo sapiens, UniProt P33261)", "T2 construct": "human liver microsomes from a pool of 200 individuals; from tissue; host or cells: human liver microsomes, pool of 200 individuals", "experiment": "Direct inhibition of CYP activity in human liver microsomes", "conditions": "up to 10 μM", "text": "as §1"}, "[4]": {"molecular_target": "T3, CYP2C8 (Homo sapiens, UniProt P10632)", "T3 construct": "human liver microsomes from a pool of 200 individuals; from tissue; host or cells: human liver microsomes, pool of 200 individuals", "T3 sequence (P10632 1-490)": "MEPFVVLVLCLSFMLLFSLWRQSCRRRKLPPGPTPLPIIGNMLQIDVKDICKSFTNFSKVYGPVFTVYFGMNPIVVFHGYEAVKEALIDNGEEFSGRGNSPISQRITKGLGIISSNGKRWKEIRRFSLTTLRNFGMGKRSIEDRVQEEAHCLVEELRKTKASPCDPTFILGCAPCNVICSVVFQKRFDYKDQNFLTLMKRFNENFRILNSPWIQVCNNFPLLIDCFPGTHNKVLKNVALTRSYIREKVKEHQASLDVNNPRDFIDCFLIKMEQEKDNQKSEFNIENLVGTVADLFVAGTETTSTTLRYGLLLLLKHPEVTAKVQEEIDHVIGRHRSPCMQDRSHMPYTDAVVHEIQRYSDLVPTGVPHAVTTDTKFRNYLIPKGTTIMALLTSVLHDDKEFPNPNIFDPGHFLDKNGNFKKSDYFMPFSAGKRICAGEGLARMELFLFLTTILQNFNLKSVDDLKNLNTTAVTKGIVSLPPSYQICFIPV", "experiment": "Direct inhibition of CYP activity in human liver microsomes", "text": "as §1"}, "[5]": {"molecular_target": "T4, CYP2C9 (Homo sapiens, UniProt P11712)", "T4 construct": "human liver microsomes from a pool of 200 individuals; from tissue; host or cells: human liver microsomes, pool of 200 individuals", "experiment": "Direct inhibition of CYP activity in human liver microsomes", "conditions": "up to 10 μM", "text": "as §1"}, "[6]": {"molecular_target": "T5, CYP2D6 (Homo sapiens, UniProt P10635)", "T5 construct": "human liver microsomes from a pool of 200 individuals; from tissue; host or cells: human liver microsomes, pool of 200 individuals", "T5 sequence (P10635 whole entry)": "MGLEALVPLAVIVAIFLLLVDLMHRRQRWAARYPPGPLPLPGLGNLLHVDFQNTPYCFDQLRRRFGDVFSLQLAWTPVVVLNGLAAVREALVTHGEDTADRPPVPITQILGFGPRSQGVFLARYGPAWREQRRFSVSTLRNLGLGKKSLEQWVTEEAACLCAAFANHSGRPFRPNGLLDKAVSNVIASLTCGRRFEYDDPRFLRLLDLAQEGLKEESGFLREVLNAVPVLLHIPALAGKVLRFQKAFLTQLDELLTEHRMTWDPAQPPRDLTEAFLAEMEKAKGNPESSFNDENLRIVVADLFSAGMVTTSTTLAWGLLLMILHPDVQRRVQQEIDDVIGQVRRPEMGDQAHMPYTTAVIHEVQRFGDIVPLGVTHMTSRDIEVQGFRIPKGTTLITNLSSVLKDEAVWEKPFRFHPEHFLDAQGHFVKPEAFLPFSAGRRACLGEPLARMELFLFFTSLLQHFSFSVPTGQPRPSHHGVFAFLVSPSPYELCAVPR", "experiment": "Direct inhibition of CYP activity in human liver microsomes", "conditions": "up to 10 μM", "text": "as §1"}, "[7]": {"system": "CYP3A4/5", "experiment": "Direct inhibition of CYP activity in human liver microsomes", "conditions": "up to 10 μM", "text": "as §1"}, "[8]": {"molecular_target": "T6, UGT1A1 (Homo sapiens, UniProt P22309)", "T6 construct": "human liver microsomes from a pool of 200 individuals; from tissue; host or cells: human liver microsomes, pool of 200 individuals", "T6 sequence (P22309 26-533)": "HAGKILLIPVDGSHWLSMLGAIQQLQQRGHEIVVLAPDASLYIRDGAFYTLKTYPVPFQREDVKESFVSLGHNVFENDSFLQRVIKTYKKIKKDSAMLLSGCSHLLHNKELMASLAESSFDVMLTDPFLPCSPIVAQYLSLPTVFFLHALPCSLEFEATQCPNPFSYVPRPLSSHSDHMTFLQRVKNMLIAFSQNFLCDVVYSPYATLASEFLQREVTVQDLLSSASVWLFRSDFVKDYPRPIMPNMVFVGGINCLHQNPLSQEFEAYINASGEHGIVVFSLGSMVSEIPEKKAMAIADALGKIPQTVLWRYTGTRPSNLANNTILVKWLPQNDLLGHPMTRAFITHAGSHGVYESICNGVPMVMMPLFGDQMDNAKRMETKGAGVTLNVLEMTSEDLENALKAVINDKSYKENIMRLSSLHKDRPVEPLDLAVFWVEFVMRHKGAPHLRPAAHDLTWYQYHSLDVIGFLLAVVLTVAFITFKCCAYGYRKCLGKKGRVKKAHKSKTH", "experiment": "Direct inhibition of UGT activity in human liver microsomes", "conditions": "highest concentration tested (10 μM)", "text": "as §1"}, "[9]": {"molecular_target": "T7, UGT1A6 (Homo sapiens, UniProt P19224)", "T7 construct": "human liver microsomes from a pool of 200 individuals; from tissue; host or cells: human liver microsomes, pool of 200 individuals", "experiment": "Direct inhibition of UGT activity in human liver microsomes", "conditions": "highest concentration tested (10 μM)", "text": "as §1"}, "[10]": {"molecular_target": "T8, BSEP (Homo sapiens, UniProt O95342)", "T8 construct": "host or cells: membrane vesicles", "T8 sequence (O95342 whole entry)": "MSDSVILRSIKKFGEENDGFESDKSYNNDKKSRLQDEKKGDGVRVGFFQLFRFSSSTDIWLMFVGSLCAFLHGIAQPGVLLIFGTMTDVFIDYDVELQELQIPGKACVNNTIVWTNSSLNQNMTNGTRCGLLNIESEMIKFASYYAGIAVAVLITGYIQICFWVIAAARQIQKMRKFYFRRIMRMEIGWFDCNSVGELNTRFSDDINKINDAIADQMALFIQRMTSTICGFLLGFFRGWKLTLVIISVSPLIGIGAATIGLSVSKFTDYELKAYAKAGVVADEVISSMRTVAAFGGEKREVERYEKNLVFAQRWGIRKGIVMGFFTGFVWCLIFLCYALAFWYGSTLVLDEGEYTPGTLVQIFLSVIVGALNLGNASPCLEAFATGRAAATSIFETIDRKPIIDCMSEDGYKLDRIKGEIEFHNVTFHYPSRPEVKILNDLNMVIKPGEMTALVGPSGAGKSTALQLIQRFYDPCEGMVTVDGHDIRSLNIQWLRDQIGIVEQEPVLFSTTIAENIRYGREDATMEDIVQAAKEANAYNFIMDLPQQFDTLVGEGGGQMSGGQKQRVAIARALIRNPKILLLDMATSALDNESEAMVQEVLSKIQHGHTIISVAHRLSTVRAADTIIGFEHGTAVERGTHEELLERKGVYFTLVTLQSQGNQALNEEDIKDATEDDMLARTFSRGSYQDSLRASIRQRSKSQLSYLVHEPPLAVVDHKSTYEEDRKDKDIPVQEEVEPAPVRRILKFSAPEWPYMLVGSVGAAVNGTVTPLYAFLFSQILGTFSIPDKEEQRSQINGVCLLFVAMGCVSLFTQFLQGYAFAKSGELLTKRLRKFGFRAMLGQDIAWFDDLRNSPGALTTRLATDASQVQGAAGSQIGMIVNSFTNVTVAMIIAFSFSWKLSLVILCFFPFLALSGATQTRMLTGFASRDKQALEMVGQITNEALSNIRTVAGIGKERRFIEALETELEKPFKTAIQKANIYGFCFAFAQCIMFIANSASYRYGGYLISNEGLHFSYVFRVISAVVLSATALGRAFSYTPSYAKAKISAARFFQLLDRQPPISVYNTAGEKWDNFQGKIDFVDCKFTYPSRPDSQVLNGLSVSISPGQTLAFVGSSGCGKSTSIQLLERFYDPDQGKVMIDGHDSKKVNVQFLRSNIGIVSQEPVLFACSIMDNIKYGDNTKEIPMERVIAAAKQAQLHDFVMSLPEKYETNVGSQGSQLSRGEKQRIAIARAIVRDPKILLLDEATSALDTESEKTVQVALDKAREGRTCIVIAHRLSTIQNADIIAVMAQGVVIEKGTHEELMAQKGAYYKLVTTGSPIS", "experiment": "Transporter inhibition, vesicular transport assay"}, "[11]": {"molecular_target": "T9, OATP1B3 (Homo sapiens, UniProt Q9NPD5)", "T9 construct": "expressed in transfected cells; host or cells: HEK293", "T9 sequence (Q9NPD5 1-702)": "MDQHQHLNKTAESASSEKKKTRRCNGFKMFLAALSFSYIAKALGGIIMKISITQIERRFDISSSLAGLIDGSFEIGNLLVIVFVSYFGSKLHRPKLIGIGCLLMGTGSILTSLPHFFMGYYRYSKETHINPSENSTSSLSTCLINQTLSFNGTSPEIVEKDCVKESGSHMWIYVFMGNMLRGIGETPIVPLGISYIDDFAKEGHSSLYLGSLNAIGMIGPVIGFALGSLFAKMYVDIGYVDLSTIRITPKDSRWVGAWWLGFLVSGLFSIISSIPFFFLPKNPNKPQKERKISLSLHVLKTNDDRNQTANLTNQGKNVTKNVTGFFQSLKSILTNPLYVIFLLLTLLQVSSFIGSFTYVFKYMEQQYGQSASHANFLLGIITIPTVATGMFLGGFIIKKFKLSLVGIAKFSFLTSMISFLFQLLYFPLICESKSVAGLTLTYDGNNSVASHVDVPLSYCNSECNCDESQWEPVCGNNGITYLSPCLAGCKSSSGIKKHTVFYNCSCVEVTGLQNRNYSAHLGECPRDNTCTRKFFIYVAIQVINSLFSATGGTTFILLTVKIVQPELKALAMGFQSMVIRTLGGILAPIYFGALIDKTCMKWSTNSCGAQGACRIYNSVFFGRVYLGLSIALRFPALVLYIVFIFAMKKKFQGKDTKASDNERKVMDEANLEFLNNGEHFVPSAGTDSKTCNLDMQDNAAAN", "experiment": "Transporter inhibition, HEK293 cells"}, "[12]": {"molecular_target": "T10, MATE1 (Homo sapiens, UniProt Q96FL8)", "T10 construct": "expressed in transfected cells; host or cells: HEK293", "T10 sequence (Q96FL8 whole entry)": "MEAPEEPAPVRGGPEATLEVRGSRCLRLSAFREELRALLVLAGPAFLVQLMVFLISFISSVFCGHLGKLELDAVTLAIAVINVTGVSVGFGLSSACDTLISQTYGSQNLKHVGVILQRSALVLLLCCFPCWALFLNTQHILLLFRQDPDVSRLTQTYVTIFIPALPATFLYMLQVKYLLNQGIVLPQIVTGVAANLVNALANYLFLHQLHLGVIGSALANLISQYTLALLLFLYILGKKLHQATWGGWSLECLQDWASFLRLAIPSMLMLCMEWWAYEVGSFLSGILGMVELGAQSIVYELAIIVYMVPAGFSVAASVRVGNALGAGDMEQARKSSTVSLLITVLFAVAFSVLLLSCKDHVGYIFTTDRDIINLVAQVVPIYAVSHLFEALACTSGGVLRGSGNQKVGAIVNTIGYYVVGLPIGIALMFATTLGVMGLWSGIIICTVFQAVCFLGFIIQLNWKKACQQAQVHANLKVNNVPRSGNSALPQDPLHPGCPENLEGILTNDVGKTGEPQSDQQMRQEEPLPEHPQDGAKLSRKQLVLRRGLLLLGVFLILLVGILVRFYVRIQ", "experiment": "Transporter inhibition, HEK293 cells"}, "[13]": {"molecular_target": "P-gp (Homo sapiens, UniProt P08183)", "sequence (P08183 whole entry)": "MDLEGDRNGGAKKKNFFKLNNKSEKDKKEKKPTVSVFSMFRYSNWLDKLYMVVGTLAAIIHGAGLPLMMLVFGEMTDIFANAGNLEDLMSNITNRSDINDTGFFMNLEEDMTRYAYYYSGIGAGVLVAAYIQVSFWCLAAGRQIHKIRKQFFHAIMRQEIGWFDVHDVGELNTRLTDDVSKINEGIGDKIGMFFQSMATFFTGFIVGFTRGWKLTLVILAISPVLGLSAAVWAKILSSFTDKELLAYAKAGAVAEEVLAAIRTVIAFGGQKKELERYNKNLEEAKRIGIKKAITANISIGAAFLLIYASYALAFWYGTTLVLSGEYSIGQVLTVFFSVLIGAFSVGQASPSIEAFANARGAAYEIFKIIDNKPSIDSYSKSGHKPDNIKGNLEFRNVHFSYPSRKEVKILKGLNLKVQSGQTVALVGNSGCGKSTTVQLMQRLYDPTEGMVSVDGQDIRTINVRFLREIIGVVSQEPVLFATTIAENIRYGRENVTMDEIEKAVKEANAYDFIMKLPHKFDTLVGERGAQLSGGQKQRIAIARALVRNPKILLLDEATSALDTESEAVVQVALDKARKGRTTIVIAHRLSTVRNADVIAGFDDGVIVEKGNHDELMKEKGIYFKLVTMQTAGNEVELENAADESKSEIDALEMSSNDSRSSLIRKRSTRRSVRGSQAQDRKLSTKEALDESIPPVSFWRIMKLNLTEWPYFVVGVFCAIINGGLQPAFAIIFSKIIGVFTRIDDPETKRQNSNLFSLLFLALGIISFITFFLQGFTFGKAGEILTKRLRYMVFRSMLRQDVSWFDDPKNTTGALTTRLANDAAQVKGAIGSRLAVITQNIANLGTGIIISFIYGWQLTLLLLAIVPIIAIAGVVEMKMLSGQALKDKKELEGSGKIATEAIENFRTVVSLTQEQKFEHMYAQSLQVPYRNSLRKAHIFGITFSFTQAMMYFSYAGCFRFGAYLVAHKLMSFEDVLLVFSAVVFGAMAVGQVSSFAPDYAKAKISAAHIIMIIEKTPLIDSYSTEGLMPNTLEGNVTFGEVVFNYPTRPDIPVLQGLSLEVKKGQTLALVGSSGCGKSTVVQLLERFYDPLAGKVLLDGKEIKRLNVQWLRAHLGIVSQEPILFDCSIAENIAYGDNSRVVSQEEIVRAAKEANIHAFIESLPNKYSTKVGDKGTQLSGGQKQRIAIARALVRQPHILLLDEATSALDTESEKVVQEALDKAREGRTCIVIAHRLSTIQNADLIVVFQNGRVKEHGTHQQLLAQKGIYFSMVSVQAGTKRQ", "experiment": "Transporter substrate evaluation, MDCKII-P-gp cells", "design": "expressed in transfected cells; host or cells: MDCKII (Madin-Darby canine kidney) cells"}}}
{"smiles": "O=C(O)C[C@H]1CCc2c1[nH]c1ccc(OCc3ccc(C4CCCC4)c(C(F)(F)F)c3)cc21", "note": "[Compound 1, (R)-2-(7-(4-cyclopentyl-3-(trifluoromethyl)benzyloxy)-1,2,3,4-tetrahydrocyclopenta[b]indol-3-yl)acetic acid]", "values": [{"measurement": "Direct inhibition of CYP1A2 activity", "setting": "[1]", "value": "Little or no direct inhibition"}, {"measurement": "Direct inhibition of CYP2B6 activity", "setting": "[2]", "value": "Little or no direct inhibition"}, {"measurement": "Direct inhibition of CYP2C19 activity", "setting": "[3]", "value": "Little or no direct inhibition"}, {"measurement": "inhibition at 1 µM", "setting": "[4]", "value": 22, "unit": "%"}, {"measurement": "inhibition at 10 µM", "setting": "[4]", "value": "~100", "unit": "%"}, {"measurement": "Direct inhibition of CYP2C9 activity", "setting": "[5]", "value": "Little or no direct inhibition"}, {"measurement": "Direct inhibition of CYP2D6 activity", "setting": "[6]", "value": "Little or no direct inhibition"}, {"measurement": "Direct inhibition of CYP3A4/5 activity", "setting": "[7]", "value": "Little or no direct inhibition"}, {"measurement": "inhibition at 10 µM", "setting": "[8]", "value": "≤ 28", "unit": "%"}, {"measurement": "inhibition at 10 µM", "setting": "[9]", "value": "≤ 48", "unit": "%"}, {"measurement": "Reduction of ATP-dependent uptake of [3H]-taurocholic acid in BSEP-expressing vesicles (inhibition)", "setting": "[10]; 1 and 10 μM", "value": "less than 50%"}, {"measurement": "IC50", "setting": "[10]; vesicles, [3H]-taurocholic acid (0.4 μM), 1 and 10 μM tested", "value": "> 10", "unit": "µM"}, {"measurement": "Reduction of uptake rate of estradiol-17β-glucuronide into OATP1B3-expressing cells (inhibition)", "setting": "[11]; 1 and 10 μM", "value": "less than 50%"}, {"measurement": "IC50", "setting": "[11]; HEK293 cells, [3H]-estradiol-17β-glucuronide (50 nM), 1 and 10 μM tested", "value": "> 10", "unit": "µM"}, {"measurement": "IC50", "setting": "[12]; HEK293 cells, [14C]-metformin (10 μM), 1 and 10 μM tested", "value": "> 10", "unit": "µM"}, {"measurement": "Inhibition of MATE1", "setting": "[12]; up to 10 μM", "value": "less than 50%"}, {"measurement": "efflux ratio at 1 μM", "setting": "[13]; MDCK-MDR1, 1 μM", "value": 1.12}, {"measurement": "efflux ratio at 10 μM", "setting": "[13]; MDCK-MDR1, 10 μM", "value": 3.17}, {"measurement": "recovery", "setting": "[13]; MDCK-MDR1, MDCKII-P-gp assay", "value": "18 to 60", "unit": "%"}]}
